How the values were obtained:
[1] = system: phospho-AKT(Ser473) in SH-SY5Y cells; assay: Akt (Ser473) phosphorylation in differentiated SH-SY5Y cells (antibody array, western blot, Phosflow); type: cell-based, human
Protocol: SH-SY5Y cells were obtained from ATCC (Cat# CRL-2266, Manassas, Va.) and were cultured in DMEM and 10% FBS up to passage 10. For differentiation of SH-SY5Y cells into a neuronal phenotype, cells were first plated in DMEEM+10% FBS for 24 hrs before exchanging media in DMEM+1% FBS 10 μM retinoic acid. Differentiation was performed for 3 days before experimentation. Hippocampal neurons were prepared according to the protocol by Beaudoin et al. (Nature Protocols 2012; 7(9):1741-1754) with minor modifications. In brief, after trypsin digestion of hippocampi isolated from P1 mouse pups single cell suspensions was created by trituration and plated onto Biocoat™ poly-D-lysine coated 12-well plates (Cat#354470, BD Biosciences, San Jose, Calif.). 2 pups were used per well and cell suspensions were incubated for 10 minutes per well for a total of 6 wells. The serial incubation allowed for variation in cell densities applicable to different experiments but also contributed to the reduction in non-neuronal cells. Typically wells 1-2 were pooled for western blotting and wells 4-5 were used for imaging following treatments. After the initial plating cells were incubated for 2 hrs before media was completely exchanged for maintenance media that was supplemented with 1 μM of the anti-mitotic cytosine arabinoside in order to further reduce non-neuronal cells. For western blot, cells were cultured for 7 days before experimentation. Half of maintenance media was exchanged on day 2 and day 5. For morphology experiments, treatments were initiated upon the introduction of maintenance media and was renewed 48 hrs later for a further 24 hrs of treatment. Experiments were terminated by fixation for 20 minutes with 4% paraformaldehyde after which cells were stored at 4° C. in PBS prior to staining protocols.
(§1) Pathscan Antibody™ array kits were purchased from Cell Signaling Technologies (Danvers, Mass.). PathScan® RTK signaling antibody array kit (Fluorescent Readout, Cat#7949) and PathScan™ Akt signaling antibody array kit (Fluorescent Readout, Cat#9700) were performed as per manufacturer's instructions. Imaging was performed on a LI-COR Odyssey™ infrared scanner and pixel densities measured by in house LI-COR Image™ suite software.
After experimentation, SH-SY5Y cells were detached from culture ware via trypsin digestion and rapidly mixed with an equal volume of BD cytofix fixation buffer (Cat#554655. BD Biosciences, San Jose, Calif.). After wash steps with PBS cells were permeabilized with BD phosflow Perm Buffer III (Cat#558050. BD Biosciences, San Jose, Calif.) and incubated on ice for 30 mins. After washing in BD stain buffer (Cat#554657. BD Biosciences, San Jose, Calif.) cells were counted and 1×10^6 cells were used antibody incubation. Negative IgG compensation control was obtained using ABC control beads (Cat# A10344. Life Technologies, Grand Island, N.Y.). Antibody incubations were conducted for 30 mins at RT in the dark. Following wash steps the volume was adjusted to 500 μl and results obtained using and LSR II flow cytometer and analyzed using Flowjo™ cytometric analytical software version 8.8.7.
Cell lysates for western blotting were prepared with RIPA buffer (Cat#89900. Thermofisher Scientific, Rockford, Ill.) supplemented with phosphatase inhibitor cocktail 2 (Cat# P5726. Sigma, St Louis, Mo.), phosphatase inhibitor cocktail 3 (Cat# P0044. Sigma, St Louis, Mo.) and complete protease inhibitor (Cat#1862209. Thermofisher Scientific, Rockford, Ill.). Complete homogenization was ensured by brief sonication using a Branson Sonifier 150, (Branson Ultrasonics Corporation, Danbury, Conn.). Protein content was quantified with a Pierce BCA protein assay kit per manufacturer's instructions (Cat#23225. Thermofisher Scientific, Rockford, Ill.).
(§2) Lysates was analyzed in conjuncture with the LI-COR Odyssey™ infra-red imaging system. […]

[2] = system: S6 Ribosomal Protein (S235/236) in SH-SY5Y cells; assay: S6 Ribosomal Protein (S235/236) phosphorylation in SH-SY5Y cells; type: cell-based, human; settings: 10 μM GM6001, 15 minutes
Protocol: (§3) SH-SY5Y cells were obtained from ATCC (Cat# CRL-2266, Manassas, Va.) and were cultured in DMEM and 10% FBS up to passage 10. For differentiation of SH-SY5Y cells into a neuronal phenotype, cells were first plated in DMEEM+10% FBS for 24 hrs before exchanging media in DMEM+1% FBS 10 μM retinoic acid. Differentiation was performed for 3 days before experimentation. Hippocampal neurons were prepared according to the protocol by Beaudoin et al. (Nature Protocols 2012; 7(9):1741-1754) with minor modifications. In brief, after trypsin digestion of hippocampi isolated from P1 mouse pups single cell suspensions was created by trituration and plated onto Biocoat™ poly-D-lysine coated 12-well plates (Cat#354470, BD Biosciences, San Jose, Calif.). 2 pups were used per well and cell suspensions were incubated for 10 minutes per well for a total of 6 wells. The serial incubation allowed for variation in cell densities applicable to different experiments but also contributed to the reduction in non-neuronal cells. […]
as §1
Cell lysates for western blotting were prepared with RIPA buffer (Cat#89900. Thermofisher Scientific, Rockford, Ill.) supplemented with phosphatase inhibitor cocktail 2 (Cat# P5726. Sigma, St Louis, Mo.), phosphatase inhibitor cocktail 3 (Cat# P0044. Sigma, St Louis, Mo.) and complete protease inhibitor (Cat#1862209. Thermofisher Scientific, Rockford, Ill.). […] Protein content was quantified with a Pierce BCA protein assay kit per manufacturer's instructions (Cat#23225. Thermofisher Scientific, Rockford, Ill.).
as §2

MMP-2 [3] = biological target: T1, MMP-2 (Homo sapiens, UniProt P08253); assay: SensoLyte Fluorimetric MMP-2 Activity Assay; type: biochemical; settings: GM6001
T1 sequence (P08253 110-660): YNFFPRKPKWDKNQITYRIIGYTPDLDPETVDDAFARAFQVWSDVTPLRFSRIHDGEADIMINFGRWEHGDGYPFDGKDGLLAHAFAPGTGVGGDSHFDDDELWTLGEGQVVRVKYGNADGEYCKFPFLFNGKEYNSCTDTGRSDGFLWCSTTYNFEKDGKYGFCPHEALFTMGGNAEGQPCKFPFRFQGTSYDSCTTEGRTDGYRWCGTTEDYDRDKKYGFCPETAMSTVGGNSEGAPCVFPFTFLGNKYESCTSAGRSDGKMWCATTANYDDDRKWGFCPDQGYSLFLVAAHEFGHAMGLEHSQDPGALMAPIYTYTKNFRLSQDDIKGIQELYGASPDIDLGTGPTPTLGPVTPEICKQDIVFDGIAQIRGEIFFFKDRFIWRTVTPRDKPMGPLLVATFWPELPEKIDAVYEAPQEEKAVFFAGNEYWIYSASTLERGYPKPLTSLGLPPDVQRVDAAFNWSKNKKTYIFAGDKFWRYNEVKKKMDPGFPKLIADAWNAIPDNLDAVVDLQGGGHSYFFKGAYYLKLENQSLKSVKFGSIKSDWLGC
Excerpt: (§4) SensoLyte Fluorimetric MMP-2 Activity Assay Kit™ (Cat#71151) and SensoLyte Fluorimetric MMP-9 Activity Assay Kit™ (Cat#71155) were purchased from AnaSpec (Fremont, Calif.) and performed per manufacturer's instructions.

MMP-9 [4] = biological target: T2, MMP-9 (Homo sapiens, UniProt P14780); assay: SensoLyte Fluorimetric MMP-9 Activity Assay; type: biochemical; settings: GM6001
Excerpt: as §4
Target sequence in this assay (P14780 94-707, species assumed): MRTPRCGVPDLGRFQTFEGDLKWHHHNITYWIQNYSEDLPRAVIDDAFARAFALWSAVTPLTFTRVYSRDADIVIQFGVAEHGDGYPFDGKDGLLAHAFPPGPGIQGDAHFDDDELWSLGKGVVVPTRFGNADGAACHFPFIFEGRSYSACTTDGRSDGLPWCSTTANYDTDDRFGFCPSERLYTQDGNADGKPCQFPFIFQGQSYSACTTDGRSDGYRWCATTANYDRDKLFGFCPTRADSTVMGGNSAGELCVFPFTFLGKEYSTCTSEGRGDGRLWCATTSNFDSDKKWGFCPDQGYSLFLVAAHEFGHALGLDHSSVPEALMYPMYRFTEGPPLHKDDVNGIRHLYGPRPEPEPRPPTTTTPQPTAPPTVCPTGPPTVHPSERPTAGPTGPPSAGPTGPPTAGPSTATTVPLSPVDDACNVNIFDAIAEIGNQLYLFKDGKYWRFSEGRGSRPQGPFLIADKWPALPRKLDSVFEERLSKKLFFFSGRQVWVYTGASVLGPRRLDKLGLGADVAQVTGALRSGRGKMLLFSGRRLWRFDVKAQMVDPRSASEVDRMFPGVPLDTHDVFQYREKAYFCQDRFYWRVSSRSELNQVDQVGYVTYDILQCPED

MMP-2 [5] = biological target: MMP-2 (UniProt P08253); assay: cell-based or functional assay
MMP-9 [6] = biological target: T2, MMP-9; assay: cell-based or functional assay
Target sequence in this assay (P14780 107-707 limits assumed): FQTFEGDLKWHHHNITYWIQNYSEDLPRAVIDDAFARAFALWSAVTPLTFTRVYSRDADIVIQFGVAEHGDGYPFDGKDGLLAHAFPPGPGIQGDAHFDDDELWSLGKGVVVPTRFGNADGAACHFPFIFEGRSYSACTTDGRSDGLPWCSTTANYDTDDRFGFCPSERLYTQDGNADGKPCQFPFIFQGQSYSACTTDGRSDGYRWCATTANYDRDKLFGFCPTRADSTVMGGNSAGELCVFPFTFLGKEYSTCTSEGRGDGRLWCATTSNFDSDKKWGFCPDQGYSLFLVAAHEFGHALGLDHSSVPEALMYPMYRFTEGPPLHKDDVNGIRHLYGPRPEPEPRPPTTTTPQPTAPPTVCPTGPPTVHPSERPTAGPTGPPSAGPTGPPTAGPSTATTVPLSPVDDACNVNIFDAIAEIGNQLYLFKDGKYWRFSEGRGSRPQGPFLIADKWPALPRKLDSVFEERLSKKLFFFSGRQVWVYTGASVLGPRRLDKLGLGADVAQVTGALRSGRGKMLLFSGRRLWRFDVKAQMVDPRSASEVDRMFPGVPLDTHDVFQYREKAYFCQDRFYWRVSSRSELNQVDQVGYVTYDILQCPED

[7] = Brain distribution of IV infra-red tagged TIMP3 post-TBI; type: in vivo, mouse; settings: coronal section through impact site, n=2
Excerpt: FIGS. 2A-2B are graphical representations depicting various data relating to intravenous TIMP3 which preserves vulnerable neuronal populations in the hippocampus. (A) Coronal section through the impact site showing target coverage following IV administration of an infra-red tagged TIMP3. Spectrum bar indicates the intensity of the distribution. […] (B) NeuN staining of post-mitotic mature neurons 7 days post-TBI. Representative photomi-crographs of ipsilateral hippocampi from the 3 groups show NeuN staining in the granule cell layer (GCL) and Hilus (HL) of the dentate gyrus. Highlighted area panels show enhanced view of NeuN+ve hilar interneurons. Scale bar=100 μm. Lower panel, quantification of NeuN+ve neurons in the HL. n=4, 4 section per animal, mean±s.e.m. […] (C) DCX staining of neural progenitors/immature neurons 7 days post-TBI. Representative photomi-crographs of ipsilateral hippocampi from the 3 groups showing DCX staining in the subgranule zone (SGZ) of the dentate gyrus. Highlighted area panels show enhanced view of DCX positive immature neurons. […] Lower panel, quantification of DCX+ve neurons, n=4, 4 sections per animal, mean±s.e.m.
Subsequently, the inventors sought to determine the effects IV TIMP3 post-TBI on hippocampal neuronal populations. […] To further examine the effects of TIMP3 on neuronal cells the presence of neural progenitors was quantified by DCX staining. […]

hippocampal neurons = assay: Sholl analysis of isolated hippocampal neurons; type: cell-based, mouse; settings: shRNA vs scrambled sequence (SCR); 7 days post-transfection
Protocol: as §3
Sholl analysis on processed images of isolated hippocampal neurons was conducted using the Fiji derivation of Image J. (Hypertext Transfer Protocol://Fiji.sc.Fiji). […] After neurites had been traced the images were rendered as an analyzed skeleton and Sholl analysis was run on the image from the Analyze menu option.

mTOR = assay: Real-time PCR of mTOR message in transfected hippocampal neurons; type: cell-based, mouse; settings: 7 days post-transfection; during TIMP3 treatment; relative to actin
Protocol: Primary hippocampal neuron suspensions were transfected post-trituration and prior to plating. Neurons were ‘Nucleofected’ using a 4D-Nucleofector™ System (Lonza, Walkersville, Md.) in conjunction with a P3 Primary Cell 4D-Nucleofector® X Kit. In brief, 5×10^5 cells were nucleofected with 1.5 μg DNA resuspended in 100 μl of P3 solution after which cells were plated and cultured per normal protocol.
Plasmid vector pENN.AAV.U6.ShRLuc.CMV.eGFP.SV40 was provided by the Penn vector core, University of Pennsylvania, (Philadelphia, Pa.). mTOR shRNA sequence was chosen based on the previous publication by Jaworrski et al (43). Sequence ‘mTOR3071’ was chosen based on complete sequence identity between rat and mouse genes. Scrambled sequence (SCR) was designed using the online scramble design tool by genscript on the World Wide Web at genscript.com/ssl-bin/app/scramble. […]
Cells were lysed using 0.7 mL of QIAzol™ reagent (Qiagen, Valencia Calif.), followed by 15 min centrifugation at 12,000 g at 4° C. […] Quantitative real-time PCR measuring mouse-specific mTOR and Beta-actin (ACTB) genes using Taqman™ real time PCR was performed using the ABI ViiA 7 Real-Time PCR System™. Raw cycle threshold (Ct) numbers of amplified mTOR gene products were normalized to the housekeeping gene ACTB to control for cDNA input amounts. mRNA relative copy number was determined using the comparative Ct method.

For `CO[C@H]1C[C@@H]2CC[C@@H](C)[C@@](O)(O2)C(=O)C(=O)N2CCCC[C@H]2C(=O)O[C@H]([C@H](C)C[C@@H]2CC[C@@H](O)[C@H](OC)C2)CC(=O)[C@H](C)/C=C(\C)[C@@H](O)[C@@H](OC)C(=O)[C@H](C)C[C@H](C)/C=C/C=C/C=C/1C` [rapamycin, Rapamycin, reference compound], the “Akt (Ser473) phosphorylation with rapamycin, western blot” value ([1]; rapamycin pre-treatment with TIMP3) was “not inhibited”.

In the case of `CNC(=O)[C@H](Cc1c[nH]c2ccccc12)NC(=O)[C@@H](CC(=O)NO)CC(C)C` [GM6001, reference compound], the “phosphorylation of Akt (Ser473), western blot” value ([1]; 10 μM GM6001, 15 minutes) is reported as “did not result in increased phosphorylation”, the “phosphorylation of S6RP (S235/236), western blot” value [2] is reported as “did not result in increased phosphorylation” and the “MMP-2 inhibition (Sensolyte FRET assay)” value (MMP-2 [3]) is reported as “complete MMP inhibition”. For the same molecule, the “MMP-9 inhibition (Sensolyte FRET assay)” value (MMP-9 [4]) was “complete MMP inhibition”.

In the case of “Recombinant TIMP3 (tissue inhibitor of matrix metalloproteinase-3) (from UniProt P35625 24-211)”, the Sensolyte FRET assay of MMP-2 enzyme activity; TIMP3 concentration that gives full inhibition (MMP-2 [5]) is reported as 1 µg/mL and the Sensolyte FRET assay of MMP-9 enzyme activity; TIMP3 concentration that gives full inhibition (MMP-9 [6]) is reported as 1 µg/mL.

B1: infra-red tagged TIMP3: Infra-red tagged version of recombinant TIMP3, obtained from Amgen Inc. (protein, UniProt P35625 24-211, looked up)
Metalloproteinase inhibitor 3: CTCSPSHPQDAFCNSDIVIRAKVVGKKLVKEGPFGTLVYTIKQMKMYRGFTKMPHVQYIHTEASESLCGLKLEVNKYQYLLTGRVYDGKMYTGLCNFVERWDQLTLSQRKGLNYRYHLGCNCKIKSCYYLPCFVTSKNECLWTDMLSNFGYPGYQSKHYACIRQKGGYCSWYRGWAPPDKSIINATDP
modifications: infra-red dye label
In the case of B1, the “penetrance into the ipsilateral hippocampus after IV administration” value [7] is reported as “penentrance of TIMP3 into the ipsilateral hippocampus”.

B2: shRNA against mTOR: shRNA sequence mTOR3071 (SEQ ID NO: 1) cloned into plasmid pENN.AAV.U6.ShRLuc.CMV.eGFP.SV40 (nucleic acid)
guide: GGAUCCGAGCCACATCCGTCCCTACTTCAAGAGAGTAGGGACGGATGTGGCTCTTTTTGAAUCC
For B2, the “effect on TIMP3-promoted neurite outgrowth (Sholl analysis)” value (hippocampal neurons) was “significantly inhibited the effects of TIMP3 on neurite outgrowth” and the “reduction of mTOR message levels compared to SCR” value (mTOR) was “approximately 50%”.

Reference: patent US20150359847A1, “METHOD AND COMPOSITION FOR CONFERRING NEUROPROTECTION” (BLOOD SYSTEMS RESEARCH INSTITUTE, priority 2014, published 2015)
